94 molecules from ChEMBL document CHEMBL3507680, “University of Dundee, Gates Library screen for HepG2 cell viability” can be followed below.

The nature of this data set: Human HepG2 cell viability assay in 384 well format. To be noted: HepG2 cells, read-out: Inhibition. Format: toxicity, cell-based. On the set-up: dose 125 nL, time 70.5 hour; concentration not given beside the values.

The structures appear in SMILES notation.

As to `CCC1=NN2C(=N)/C(=C\c3cccn3-c3ccc(Cl)cc3)C(=O)N=C2S1`, the cytotoxicity at 70.5 h worked out at 9.55%.

For the molecule `Cc1nn(C(=O)c2cccnc2)c(C)c1C`, the cytotoxicity at 70.5 h came to 27.4%.

On to `CC(C)NC(=O)C[C@@H]1CCNC[C@@H]1Cc1cc(-c2ccccc2)on1`, for which the cytotoxicity at 70.5 h was -1.73%.

For the molecule `CCNC(=O)N1CC[C@H]2CC(=O)N(C3CCCCC3)CC[C@H]2C1`, the cytotoxicity at 70.5 h is -5.33%.

As for `Cn1nc(-c2cccs2)cc1[C@H]1CN2CC[C@H]1C[C@@H]2CN`, the cytotoxicity at 70.5 h is -6.9%.

Consider `O[C@@H]1C[C@@H](c2nc(-c3ccc(F)cc3)no2)N(C2CCOCC2)C1`, for which the cytotoxicity at 70.5 h is -3.33%.

For the molecule `CC(C)(C)c1cc(C[C@H]2CNCC[C@H]2CC(=O)NCc2cccs2)no1`, the cytotoxicity at 70.5 h was -6.24%.

Regarding `Cc1noc([C@@H]2C[C@H](NC(=O)NC3CCCCC3)CN2C)n1`, the cytotoxicity at 70.5 h was -7.54%.

Take `Cc1noc([C@@H]2C[C@H](NC(=O)Nc3cccc(F)c3)CN2C)n1`: the cytotoxicity at 70.5 h came to 6.23%.

As for `Cc1ccc(N2C(=O)N[C@@H]3CCN(C(=O)C4CC4)[C@@H]3C2=O)cc1`, the cytotoxicity at 70.5 h was -15.3%.

As for `O=C1N[C@@H]2CCN(C(=O)c3ccccc3)[C@@H]2C(=O)N1c1ccc(F)cc1`, the cytotoxicity at 70.5 h was -12.9%.

For `COC(=O)[C@@H]1CN(C(=O)Nc2ccccc2)CCN1C(C)=O`, the cytotoxicity at 70.5 h was -7%.

With `COc1ccccc1-c1nnc([C@H]2CCN(C(=O)C3CC3)C2)o1`, the cytotoxicity at 70.5 h stood at 11.5%.

For the molecule `FC(F)(F)c1ccc(-c2c[nH]c([C@@H]3COCCN3)n2)cc1`, the cytotoxicity at 70.5 h was -16%.

Consider `COCC(=O)N1CCN2C(=O)OC[C@H]2C1`, for which the cytotoxicity at 70.5 h is 3.16%.

For `O=C1CO[C@H]2CN(Cc3ccc(F)c(F)c3)C[C@H]2N1`, the cytotoxicity at 70.5 h is -12.7%.

Regarding `O=C1CO[C@H]2CN(Cc3ccc4c(c3)OCO4)C[C@H]2N1`, the cytotoxicity at 70.5 h is -7.08%.

On to `c1ccc2c(Cc3nnc([C@H]4CCNC4)o3)c[nH]c2c1`, for which the cytotoxicity at 70.5 h was -2.38%.

`Fc1ccc(-c2noc([C@@H]3Cc4nc[nH]c4CN3)n2)cc1`: the cytotoxicity at 70.5 h is -11.7%.

For the molecule `Cc1ccc(-c2noc([C@@H]3Cc4nc[nH]c4CN3)n2)cc1`, the cytotoxicity at 70.5 h is -11.9%.

As to `CCNC(=O)NC[C@H]1COCc2nc3cc(C)ccc3n21`, the cytotoxicity at 70.5 h was -3.17%.

Consider `CCNC(=O)N1C[C@@H]2OCC(=O)N(C(C)C)[C@@H]2C1`, for which the cytotoxicity at 70.5 h was -0.389%.

Consider `COc1ccc(-c2cc(C[C@@H]3C[C@H](N(C)C)C3(C)C)no2)cc1`, for which the cytotoxicity at 70.5 h was found to be 5.02%.

As for `Cc1nn(CCC#N)c(C)c1[C@@H]1C=C[C@@H](NCc2ccc(F)cc2)C1`, the cytotoxicity at 70.5 h is -0.333%.

`Cc1ccc(S(=O)(=O)Cc2noc([C@@H]3C[C@@H](O)CN3C(C)C)n2)cc1`: the cytotoxicity at 70.5 h is -8.79%.

Turning to `CC1=C[C@@H](CC#N)[C@H](C(C)C)C[C@H]1CC(=O)N1CCN(CCO)CC1`, the cytotoxicity at 70.5 h was -8.18%.

As to `COCC(=O)Nc1ccc(-c2noc([C@@H]3CCCN3C(C)C)n2)cn1`, the cytotoxicity at 70.5 h is -2.85%.

Regarding `COCc1cc(C[C@@H]2CC[C@H](O)[C@@H](CNCC(C)C)O2)no1`, the cytotoxicity at 70.5 h was -0.483%.

Take `O=C(Nc1ccccc1)[C@H]1O[C@H](CCN2CCCCC2)CC[C@@H]1O`: the cytotoxicity at 70.5 h was -3.54%.

With `O=C1N(Cc2ccccn2)C[C@H]2CN(C3CCOCC3)CCN12`, the cytotoxicity at 70.5 h is -3.19%.

On to `CC(C)(O)c1cc(CC2(NCC3CCCCC3)COC2)no1`, for which the cytotoxicity at 70.5 h was -16.3%.

Regarding `CS(=O)(=O)NC[C@H]1OC[C@@H](NC2CCC(F)(F)CC2)[C@@H]1O`, the cytotoxicity at 70.5 h is -5.87%.

Turning to `O=C(NC[C@H]1OC[C@@H](NCc2ccccc2F)[C@@H]1O)Nc1ccccc1`, the cytotoxicity at 70.5 h is -3.35%.

In the case of `CN(C)C[C@H]1O[C@H](Cc2cc(-c3ccccn3)on2)CC[C@@H]1O`, the cytotoxicity at 70.5 h is -4.76%.

As to `COc1cccc(CN2CCN3C(=O)NC[C@H]3C2)n1`, the cytotoxicity at 70.5 h was -7.27%.

Take `Cc1ccc(CN2C[C@H](O)C[C@H]2c2nc(-c3ccc(F)cc3)no2)cc1`: the cytotoxicity at 70.5 h was -7.37%.

On to `c1cnc2c(c1)nc1n2[C@@H](CNC2CCOCC2)COC1`, for which the cytotoxicity at 70.5 h is -4.98%.

Consider `CC(C)NC(=O)NC[C@H]1OC[C@@H](NCc2ccccc2F)[C@@H]1O`, for which the cytotoxicity at 70.5 h is -4.73%.

With `Cc1cc2nc(CO[C@H]3CN(C4CCC4)C[C@H]3F)[nH]c2cc1C`, the cytotoxicity at 70.5 h is -2.01%.

Consider `c1cn2c(n1)CO[C@@H](CNCc1ccc3c(c1)OCO3)C2`, for which the cytotoxicity at 70.5 h was -4.1%.

Turning to `CC(C)N[C@@H]1CO[C@H](CNC(=O)Nc2ccccc2)[C@H]1O`, the cytotoxicity at 70.5 h is -2.59%.

Turning to `CC(=O)N1C[C@@H](F)[C@@H](OCc2nc3ccccc3o2)C1`, the cytotoxicity at 70.5 h is -3.68%.

As to `COCCN1C[C@H]2CN(C(=O)c3ccc4c(c3)OCO4)CCN2C1=O`, the cytotoxicity at 70.5 h is -3.46%.

Take `COc1cc(OC)c2c(=O)oc(CC(O)CC(C)=O)cc2c1` (centres undefined): the cytotoxicity at 70.5 h was determined as 9.76%.

In the case of `CCc1noc(-c2cccc(OCC(=O)NC(C)C)c2)n1`, the cytotoxicity at 70.5 h is -7.23%.

On to `Cn1nc(C2CCCN(Cc3ccsc3)C2)c2nccnc21` (centres undefined), for which the cytotoxicity at 70.5 h was -0.972%.

For the molecule `COc1cccc(N2CCN(CC(O)c3cc(C)sc3C)CC2)c1` (centres undefined), the cytotoxicity at 70.5 h is -2.76%.

Take `O=C(Cc1ccsc1)N1CCCC(c2n[nH]c3nccnc23)C1` (centres undefined): the cytotoxicity at 70.5 h was 18.6%.

Consider `Cn1nc(C2CCCN(C(=O)Cc3ccsc3)C2)c2nccnc21` (centres undefined), for which the cytotoxicity at 70.5 h was -9.48%.

As for `Cc1cc2c(=O)n3c(nc2s1)CCN(Cc1ccncc1)CC3`, the cytotoxicity at 70.5 h was -13.5%.

With `OC1CCCN(Cc2c(-c3ccco3)[nH]c3ncccc23)C1` (centres undefined), the cytotoxicity at 70.5 h is -4.41%.

Regarding `Cc1ccc(=O)n(CC2(O)CCN(Cc3cnc(C)nc3)CC2)n1`, the cytotoxicity at 70.5 h was -10.4%.

As for `CC(=O)N1CCCCC1c1cc(CO)[nH]n1` (centres undefined), the cytotoxicity at 70.5 h is -18.5%.

As for `Cc1cc2c(=O)n3c(nc2s1)CCN(C(=O)c1ccncc1)CC3`, the cytotoxicity at 70.5 h was -20%.

As to `Cc1cccc2cc(CNCCCN3CCOCC3)c(=O)[nH]c12`, the cytotoxicity at 70.5 h came out at 33.6%.

Take `CS(=O)(=O)N1CCC(C(=O)NC(Cc2ccsc2)c2ccccn2)CC1` (centres undefined): the cytotoxicity at 70.5 h is -3.67%.

As for `Cc1cc(C)c2cc(CNCC3CCCO3)c3nn(C)c(=O)n3c2c1` (centres undefined), the cytotoxicity at 70.5 h is -6.37%.

Regarding `C=Cn1ncc(CN2C[C@@H]3CCCN3C[C@@H]2Cc2ccccc2)c1C`, the cytotoxicity at 70.5 h is -2.66%.

On to `CC(=O)N1CCCC(Cc2cncc(Br)c2)CC1` (centres undefined), for which the cytotoxicity at 70.5 h worked out at 19.5%.

With `CC(C)N1CCC(Cc2cc(-c3cccc(C(=O)O)c3)ncn2)C1` (centres undefined), the cytotoxicity at 70.5 h was -15%.

On to `CCC(=O)N1CCCC1c1nccnc1Nc1ncccn1` (centres undefined), for which the cytotoxicity at 70.5 h was -15%.

On to `CN1CCCC(c2cccc(Cc3ccccc3Cl)n2)C1` (centres undefined), for which the cytotoxicity at 70.5 h was -3.75%.

For the molecule `C=Cn1ncc(CN2C[C@@H]3CCCN3C[C@H]2CCSC)c1C`, the cytotoxicity at 70.5 h was -12.3%.

With `Cc1cnccc1CN1CC[C@@](C)(O)[C@H](Oc2ccccc2)C1`, the cytotoxicity at 70.5 h is 22.4%.

Turning to `Cc1ncsc1-c1nnc(C2CCN(Cc3ccc(F)cc3)CC2)o1`, the cytotoxicity at 70.5 h worked out at 8.74%.

With `Cc1cnccc1CN1C[C@@H](O)[C@H](Oc2cccc(F)c2)C1`, the cytotoxicity at 70.5 h is -3.81%.

In the case of `O=C(c1cnco1)N1CCCC(Cc2cccc3ncccc23)C1` (centres undefined), the cytotoxicity at 70.5 h was -0.138%.

Regarding `Cc1cc(Nc2nc(C)cs2)nc(C2CCCCN2CCO)n1` (centres undefined), the cytotoxicity at 70.5 h amounted to 32.4%.

On to `CCc1cc(O)nc(C2CCCN2C(=O)c2cccnc2)n1` (centres undefined), for which the cytotoxicity at 70.5 h was 20.7%.

For `Cc1ncsc1-c1nnc(C2CCN(CC3CCCCC3)CC2)o1`, the cytotoxicity at 70.5 h is -8.62%.

Turning to `Cc1nccn1-c1cccc(C2CCCN(C(=O)c3cc[nH]n3)C2)n1` (centres undefined), the cytotoxicity at 70.5 h came out at 24.4%.

Turning to `CN(C)S(=O)(=O)N1CCCC(c2cccc(Cc3ccccc3)n2)C1` (centres undefined), the cytotoxicity at 70.5 h turned out to be 19%.

For `Cc1csc(Nc2nccnc2C2CCCN2C(=O)C(C)C)n1` (centres undefined), the cytotoxicity at 70.5 h was -18.2%.

In the case of `COCC(=O)N1CCC(c2nccnc2Oc2cccnc2C)CC1`, the cytotoxicity at 70.5 h was -34%.

For `O=S(=O)(c1ccccc1)N1CCCCC1c1cc[nH]n1` (centres undefined), the cytotoxicity at 70.5 h was 21.8%.

As to `CNc1cc(C2CCCN2C(=O)c2ccc3oc(=O)n(C)c3c2)ccn1` (centres undefined), the cytotoxicity at 70.5 h is -12.4%.

For `Cc1c[nH]nc1C1CCCCN1C(=O)Cn1cc(Cl)cn1` (centres undefined), the cytotoxicity at 70.5 h is -15.8%.

As for `CNc1cncc(C2CCCN2C(=O)c2ccc3oc(C)cc3c2)n1` (centres undefined), the cytotoxicity at 70.5 h is -8.56%.

Regarding `CNc1cncc(C2CCCN2Cc2c[nH]cn2)n1` (centres undefined), the cytotoxicity at 70.5 h is -18.1%.

Turning to `O=C(c1cc[nH]n1)N1CCCC(c2cccc(-n3ccnc3)n2)C1` (centres undefined), the cytotoxicity at 70.5 h was -10.3%.

`Cc1ccccc1-c1cncc(C2CCN(C(C)C)CC2)n1`: the cytotoxicity at 70.5 h was -22.4%.

Consider `O=C1NCC2(CCCN(Cc3ccc(Cl)s3)C2)Oc2ccccc21` (centres undefined), for which the cytotoxicity at 70.5 h was -12.5%.

Regarding `CO[C@@H]1CC[C@@H](N(C)C(=O)COc2ccc(F)cc2)[C@H]1O`, the cytotoxicity at 70.5 h was -28.5%.

Turning to `CNC(=O)c1ccc(C2CN(C(=O)COC)CCO2)nc1` (centres undefined), the cytotoxicity at 70.5 h is -16.7%.

For `CNc1nc(C2CCCN2C(C)=O)nc2c1CCN(CC1CC1)C2` (centres undefined), the cytotoxicity at 70.5 h is -13.7%.

Turning to `CC(C)c1cc(C(=O)N(C)Cc2cccc3ncccc23)n(C)n1`, the cytotoxicity at 70.5 h was -3.18%.

In the case of `CCCN(C(=O)COC)c1nc2c(s1)CCc1c-2cnn1C`, the cytotoxicity at 70.5 h turned out to be 3.43%.

For `NC(=O)C1(CCCc2cccnc2)CCCN(c2ncccn2)C1` (centres undefined), the cytotoxicity at 70.5 h is -13.9%.

Turning to `NC[C@H]1CC[C@H](C(NC(=O)c2cccc(F)c2)c2ccccn2)CC1` (some centres undefined), the cytotoxicity at 70.5 h is 41%.

`O=C(NC[C@@]1(COc2cnccn2)C[C@@H](O)[C@@H](O)C1)C1CC1`: the cytotoxicity at 70.5 h was found to be 15%.

With `CCc1nc2ccccc2c(=O)n1CC1(O)CCN(S(C)(=O)=O)CC1`, the cytotoxicity at 70.5 h was -20.2%.

For the molecule `c1ccc(-c2ccc(C3CNCCO3)nc2)cc1` (centres undefined), the cytotoxicity at 70.5 h is -19.9%.

On to `Cc1cc(C[C@@H]2CCC[C@H]2NCc2ccccc2C(F)(F)F)on1`, for which the cytotoxicity at 70.5 h was -17.3%.

In the case of `Cc1cc(C[C@@H]2COC[C@H]2NCc2ccccc2C(F)(F)F)on1`, the cytotoxicity at 70.5 h is -11%.
